Assay results from PMC4459529 (Chemistry & biology, 2015).

Target: monoacylglycerol lipase (MGL) (Rattus norvegicus, UniProt Q8R431)
Test: biochemical

Sequence of monoacylglycerol lipase (MGL) (Q8R431 whole entry): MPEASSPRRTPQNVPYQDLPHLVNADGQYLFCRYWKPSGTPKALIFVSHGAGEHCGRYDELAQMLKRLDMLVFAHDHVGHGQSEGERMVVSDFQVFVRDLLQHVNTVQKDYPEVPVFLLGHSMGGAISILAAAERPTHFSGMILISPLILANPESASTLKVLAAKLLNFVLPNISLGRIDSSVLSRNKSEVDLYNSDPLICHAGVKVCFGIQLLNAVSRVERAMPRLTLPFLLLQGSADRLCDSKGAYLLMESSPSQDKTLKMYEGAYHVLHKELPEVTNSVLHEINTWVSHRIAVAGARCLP

IC50: 8.2 ± 1.3 µM
Compound: OO [hydrogen peroxide]
